Target: T1, GLP-1R (Homo sapiens, UniProt P43220)
T1 construct: host or cells: CHO cells
Assay: GLP-1R activation cAMP assay (Assay 1 or Assay 2)
Format: cell-based
Conditions: cAMP increase in CHO cells stably expressing GLP-1R; compounds run on one of the two cAMP assays
Protocol: GLP-1R ACTIVATION—cAMP Assay 1
GLP-1R activation by compounds of the present disclosure was quantified by measuring cAMP increase in CHO cells stably expressing GLP-1R (MultiSpan product #C1267-1a). The cells were harvested and plated in growth medium (DMEM/F-12 (Corning product #10-090-CV) supplemented with 10% FBS (HyClone product #SH30071-03), penicillin/streptomycin (Corning product #30-002CI) and 10 μg/ml puromycin (Gibco product #A11138-03)) at 1,000 cells/well in a 384-well plate (Greiner product #781080). The cells were then incubated overnight at 37° C., 5% CO2. The next day, the medium was removed and the cells were washed with DPBS (Corning product #21-031-CM) before adding the assay medium (HBSS, Corning product #21-023-CV) with 20 mM Hepes (Gibco product #15630-080) and 0.1% BSA (Rockland Immunochemicals product #BSA-1000)). Following the medium change, the cells were incubated for 1 hour at 37° C., 5% CO2. The tested GLP-1 compound was added to the cells in a 10-point dose response followed by a 30-minute incubation at 37° C., 5% CO2. cAMP concentration increase was then detected using Cisbio's cAMP Gs Dynamic Kit (product #62AM4PEC) according to the manufacturer's protocol. The response was plotted against the log of the agonist concentration and fitted to a sigmoidal equation to determine the EC50.
GLP-1R ACTIVATION—cAMP Assay 2
GLP-1R activation by small molecule agonists was quantified by measuring cAMP increase in CHO cells stably expressing GLP-1R (MultiSpan product #C1267-1a). 50 nL of agonists were pre-spotted in a 10-point dose response onto 384-well plate (Corning product #CL3826) using the Labcyte Echo System.

T1 sequence (P43220 24-463): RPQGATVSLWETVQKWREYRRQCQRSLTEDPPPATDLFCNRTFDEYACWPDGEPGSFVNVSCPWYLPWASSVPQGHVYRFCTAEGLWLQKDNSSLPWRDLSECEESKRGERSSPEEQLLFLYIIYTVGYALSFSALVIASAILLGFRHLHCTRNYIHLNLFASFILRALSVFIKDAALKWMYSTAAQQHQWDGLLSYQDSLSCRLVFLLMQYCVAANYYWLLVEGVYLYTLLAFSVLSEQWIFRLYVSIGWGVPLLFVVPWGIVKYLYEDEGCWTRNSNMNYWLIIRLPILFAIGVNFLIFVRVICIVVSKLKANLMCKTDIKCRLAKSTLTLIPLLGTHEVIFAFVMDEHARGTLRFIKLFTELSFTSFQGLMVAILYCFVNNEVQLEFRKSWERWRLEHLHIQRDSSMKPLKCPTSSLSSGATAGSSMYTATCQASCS

First: 2-(4-(6-((5-(difluoromethyl)thiazol-2-yl)methoxy)pyridin-2-yl)-2,5-difluorobenzyl)-4-fluoro-1-((1-(fluoromethyl)cyclopropyl)methyl)-1H-benzo[d]imidazole-6-carboxylic acid [Example 413]
Second: 2-(4-(6-((5-chlorothiazol-2-yl)methoxy)pyridin-2-yl)-2,5-difluorobenzyl)-1-((1-(fluoromethyl)cyclopropyl)methyl)-1H-benzo[d]imidazole-6-carboxylic acid [Example 269]
The EC50 of the first is 2.1-fold lower: 360 pM for the first, 748 pM for the second.

Going from `Cc1nnc(COc2cccc(-c3cc(F)c(Cc4nc5ccc(C(=O)O)cc5n4[C@@H]4COCC4(C)C)c(F)c3F)n2)s1` (single isomer, unassigned) [Example 281A] to `Cc1nnc(COc2cccc(-c3cc(F)c(Cc4nc5ccc(C(=O)O)cc5n4[C@H]4COCC4(C)C)c(F)c3F)n2)s1` (single isomer, unassigned) [Example 281B], the EC50 rises from 270 pM to 20800 pM (77-fold). The first is the more potent here.

Compared with `COc1nnc(COc2cccc(-c3cc(F)c(Cc4nc5ccc(C(=O)O)cc5n4C[C@@H]4CCO4)cc3F)n2)s1` [Example 1, 2-[[2,5-difluoro-4-[6-[(5-methoxy-1,3,4-thiadiazol-2-yl)methoxy]-2-pyridyl]phenyl]methyl]-3-[[(2S)-oxetan-2-yl]methyl]benzimidazole-5-carboxylic acid], `N#Cc1cnc(COc2cccc(-c3cc(F)c(Cc4nc5ccc(C(=O)O)cc5n4C[C@@H]4CCO4)cc3F)n2)s1` [Example 2, (S)-2-(4-(6-((5-cyanothiazol-2-yl)methoxy)pyridin-2-yl)-2,5-difluorobenzyl)-1-(oxetan-2-ylmethyl)-1H-benzo[d]imidazole-6-carboxylic acid] is 2.5-fold lower in EC50: 270 pM for the first, 110 pM for the second. The second is the more potent here.

First: NC(=O)c1cnc(COc2cccc(-c3cc(F)c(Cc4nc5ccc(C(=O)O)cc5n4C[C@@H]4CCO4)cc3F)n2)s1 [Example 3, (S)-2-(4-(6-((5-carbamoylthiazol-2-yl)methoxy)pyridin-2-yl)-2,5-difluorobenzyl)-1-(oxetan-2-ylmethyl)-1H-benzo[d]imidazole-6-carboxylic acid]
Second: NC(=O)c1csc(COc2cccc(-c3cc(F)c(Cc4nc5ccc(C(=O)O)cc5n4C[C@@H]4CCO4)cc3F)n2)n1 [Example 5, (S)-2-(4-(6-((4-carbamoylthiazol-2-yl)methoxy)pyridin-2-yl)-2,5-difluorobenzyl)-1-(oxetan-2-ylmethyl)-1H-benzo[d]imidazole-6-carboxylic acid]
The EC50 of the first is 6.3-fold higher: 3150 pM for the first, 500 pM for the second.

`O=C(O)c1ccc2nc(Cc3cc(F)c(-c4cccc(OCc5ccn(C6CC6)n5)n4)cc3F)n(C[C@@H]3CCO3)c2c1` [Example 6, (S)-2-(4-(6-((1-cyclopropyl-1H-pyrazol-3-yl)methoxy)pyridin-2-yl)-2,5-difluorobenzyl)-1-(oxetan-2-ylmethyl)-1H-benzo[d]imidazole-6-carboxylic acid] and `O=C(O)c1ccc2nc(Cc3cc(F)c(-c4cccc(OCc5cc6n(n5)CCOC6)n4)cc3F)n(C[C@@H]3CCO3)c2c1` [Example 7, (S)-2-(4-(6-((6,7-dihydro-4H-pyrazolo[5,1-c][1,4]oxazin-2-yl)methoxy)pyridin-2-yl)-2,5-difluorobenzyl)-1-(oxetan-2-ylmethyl)-1H-benzo[d]imidazole-6-carboxylic acid] are within 1.5-fold of each other in EC50: 3090 pM for the first, 3710 pM for the second.

`NC(=O)c1nc(COc2cccc(-c3cc(F)c(Cc4nc5ccc(C(=O)O)cc5n4C[C@@H]4CCO4)cc3F)n2)cs1` [Example 8, (S)-2-(4-(6-((2-carbamoylthiazol-4-yl)methoxy)pyridin-2-yl)-2,5-difluorobenzyl)-1-(oxetan-2-ylmethyl)-1H-benzo[d]imidazole-6-carboxylic acid] and `O=C(O)c1ccc2nc(Cc3cc(F)c(-c4cccc(OCc5ccn(C(F)F)n5)n4)cc3F)n(C[C@@H]3CCO3)c2c1` [Example 9, (S)-2-(4-(6-((1-(difluoromethyl)-1H-pyrazol-3-yl)methoxy)pyridin-2-yl)-2,5-difluorobenzyl)-1-(oxetan-2-ylmethyl)-1H-benzo[d]imidazole-6-carboxylic acid] are within 1.5-fold of each other in EC50: 920 pM for the first, 950 pM for the second.

Compared with `O=C(O)c1ccc2nc(Cc3cc(F)c(-c4cccc(OCc5ccn(C6COC6)n5)n4)cc3F)n(C[C@@H]3CCO3)c2c1` [Example 10, (S)-2-(2,5-difluoro-4-(6-((1-(oxetan-3-yl)-1H-pyrazol-3-yl)methoxy)pyridin-2-yl)benzyl)-1-(oxetan-2-ylmethyl)-1H-benzo[d]imidazole-6-carboxylic acid], `O=C(O)c1ccc2nc(Cc3cc(F)c(-c4cccc(OCc5nccs5)n4)cc3F)n(C[C@@H]3CCO3)c2c1` [Example 11, (S)-2-(2,5-difluoro-4-(6-(thiazol-2-ylmethoxy)pyridin-2-yl)benzyl)-1-(oxetan-2-ylmethyl)-1H-benzo[d]imidazole-6-carboxylic acid] is 13-fold lower in EC50: 7550 pM for the first, 600 pM for the second. The second is the more potent here.

First: O=C(O)c1ccc2nc(Cc3cc(F)c(-c4cccc(OCc5ccn(C(F)(F)F)n5)n4)cc3F)n(C[C@@H]3CCO3)c2c1 [Example 12, (S)-2-(2,5-difluoro-4-(6-((1-(trifluoromethyl)-1H-pyrazol-3-yl)methoxy)pyridin-2-yl)benzyl)-1-(oxetan-2-ylmethyl)-1H-benzo[d]imidazole-6-carboxylic acid]
Second: O=C(O)c1ccc2nc(Cc3cc(F)c(-c4cccc(OCc5cc(C(F)(F)F)sn5)n4)cc3F)n(C[C@@H]3CCO3)c2c1 [Example 13, (S)-2-(2,5-difluoro-4-(6-((5-(trifluoromethyl)isothiazol-3-yl)methoxy)pyridin-2-yl)benzyl)-1-(oxetan-2-ylmethyl)-1H-benzo[d]imidazole-6-carboxylic acid]
The EC50 of the first is 2.1-fold higher: 1160 pM for the first, 540 pM for the second.

First: N#Cc1ccc(COc2cccc(-c3cc(F)c(Cc4nc5ccc(C(=O)O)cc5n4C[C@@H]4CCO4)cc3F)n2)o1 [Example 14, (S)-2-(4-(6-((5-cyanofuran-2-yl)methoxy)pyridin-2-yl)-2,5-difluorobenzyl)-1-(oxetan-2-ylmethyl)-1H-benzo[d]imidazole-6-carboxylic acid]
Second: O=C(O)c1ccc2nc(Cc3cc(F)c(-c4cccc(OCc5nnc(C(F)F)s5)n4)cc3F)n(C[C@@H]3CCO3)c2c1 [Example 15, (S)-2-(4-(6-((5-(difluoromethyl)-1,3,4-thiadiazol-2-yl)methoxy)pyridin-2-yl)-2,5-difluorobenzyl)-1-(oxetan-2-ylmethyl)-1H-benzo[d]imidazole-6-carboxylic acid]
The EC50 of the first is 5.9-fold higher: 5680 pM for the first, 960 pM for the second.

`COCc1noc(COc2cccc(-c3cc(F)c(Cc4nc5ccc(C(=O)O)cc5n4C[C@@H]4CCO4)cc3F)n2)n1` [Example 16, (S)-2-(2,5-difluoro-4-(6-((3-(methoxymethyl)-1,2,4-oxadiazol-5-yl)methoxy)pyridin-2-yl)benzyl)-1-(oxetan-2-ylmethyl)-1H-benzo[d]imidazole-6-carboxylic acid] and `Cc1nc(COc2cccc(-c3cc(F)c(Cc4nc5ccc(C(=O)O)cc5n4C[C@@H]4CCO4)cc3F)n2)no1` [Example 17, (S)-2-(2,5-difluoro-4-(6-((5-methyl-1,2,4-oxadiazol-3-yl)methoxy)pyridin-2-yl)benzyl)-1-(oxetan-2-ylmethyl)-1H-benzo[d]imidazole-6-carboxylic acid] are within 1.5-fold of each other in EC50: 8860 pM for the first, 7000 pM for the second.

First: O=C(O)c1ccc2nc(Cc3cc(F)c(-c4cccc(OCc5cc(C(F)(F)F)co5)n4)cc3F)n(C[C@@H]3CCO3)c2c1 [Example 18, (S)-2-(2,5-difluoro-4-(6-((4-(trifluoromethyl)furan-2-yl)methoxy)pyridin-2-yl)benzyl)-1-(oxetan-2-ylmethyl)-1H-benzo[d]imidazole-6-carboxylic acid]
Second: O=C(O)c1ccc2nc(Cc3cc(F)c(-c4cccc(OCc5nccn5C(F)F)n4)cc3F)n(C[C@@H]3CCO3)c2c1 [Example 19, (S)-2-(4-(6-((1-(difluoromethyl)-1H-imidazol-2-yl)methoxy)pyridin-2-yl)-2,5-difluorobenzyl)-1-(oxetan-2-ylmethyl)-1H-benzo[d]imidazole-6-carboxylic acid]
The EC50 of the first is 72-fold lower: 320 pM for the first, 23200 pM for the second.

`O=C(O)c1ccc2nc(Cc3cc(F)c(-c4cccc(OCc5cnc(Cl)s5)n4)cc3F)n(C[C@@H]3CCO3)c2c1` [Example 20, (S)-2-(4-(6-((2-chlorothiazol-5-yl)methoxy)pyridin-2-yl)-2,5-difluorobenzyl)-1-(oxetan-2-ylmethyl)-1H-benzo[d]imidazole-6-carboxylic acid] and `O=C(O)c1ccc2nc(Cc3cc(F)c(-c4cccc(OCc5cnc(Br)s5)n4)cc3F)n(C[C@@H]3CCO3)c2c1` [Example 21, (S)-2-(4-(6-((2-bromothiazol-5-yl)methoxy)pyridin-2-yl)-2,5-difluorobenzyl)-1-(oxetan-2-ylmethyl)-1H-benzo[d]imidazole-6-carboxylic acid] are within 1.5-fold of each other in EC50: 330 pM for the first, 410 pM for the second.

Compound `O=C(O)c1ccc2nc(Cc3cc(F)c(-c4cccc(OCc5ncc(Br)s5)n4)cc3F)n(C[C@@H]3CCO3)c2c1` [Example 22, (S)-2-(4-(6-((5-bromothiazol-2-yl)methoxy)pyridin-2-yl)-2,5-difluorobenzyl)-1-(oxetan-2-ylmethyl)-1H-benzo[d]imidazole-6-carboxylic acid] has an EC50 of 170 pM.

— patent US20250312352A1, “GLP-1R MODULATING COMPOUNDS” (Gilead Sciences, Inc., priority 2021, published 2025)
